Assay results from US6696303B2, “Identifying substances using cells that express p75NTR” (Trustees of Boston University, priority 1996, dated 2004).

Columns and labels:
[1] = test system: Bax; test: Bax level in melanocytes by Western blot with anti-Bax antibody; format: cell-based, human; conditions: for increased Bax level as compared to the 40-1 peptide: 25 μM, four days; for Bax induction: 25 uM, within 4 days, vs 40-1 control fragment or irrelevant protein
Description: To investigate the mechanism of β-amyloid-mediated melanocyte death, Bax levels in melanocytes treated with 25 uM of 1-40 or 25-35 β-amyloid peptides was examined. Within 4 days of treatment, Bax was induced 3 fold in melanocytes stimulated either with the β-amyloid 1-40 or 25-35 fragments as compared to melanocytes treated with the 40-1 control fragment or an irrelevant HPLC purified protein of similar size.
Melanocytes were maintained as above. Four days after addition of 25 μM of β-amyloid fragments 1-40, 40-1 or 25-35; or 25 μM of HPLC-purified bovine corticotropin releasing factor (CRF) (Bachem Calif.) (MW 4.7 kD) as an additional negative control, cells were extracted in RIPA buffer (50 mM Tris-HCl, 0.15 M NaCl, 0.5% sodium deoxycholate, 1% TRITON®X-100) in the presence of 1 μ/ml aprotinin and 75 μg/ml phenylmethylsulfonyl fluoride (PMSF), sonicated for 1-3 seconds and centrifuged. 40 μg of protein per lane were separated on 12% SDS/PAGE and blotted onto nitrocellulose paper (overnight, 25V). To verify equal loading a duplicate 13% SDS/PAGE was performed and stained with Coomasie Blue R250 stain. Blots were incubated with anti-Bax antibody (1:1000 dilution) (primary antibody), followed by horseradish peroxidase-conjugated goat anti-rabbit IgG (secondary antibody) (1:500 dilution) (Bio-Rad Laboratories, Hercules, Calif.). Bound antibodies were detected using enhanced chemiluminescence kit (Amersham Corp.). Autoradiograms were scanned into a Macintosh II is computer using the Of to TM program (Light source Computer Images, Inc.). Scan analysis was performed with manual definition of bands using Scan Analysis TM 68000 program (Biosoft, Cambridge, UK).

[2] = biological target: T1, p75^NTR (Homo sapiens, UniProt P08138); test: cross linking of 125I β-amyloid 1-40 and immunoprecipitation with anti p75NTR antibodies; format: binding; conditions: p75NTR-NIH 3T3 cells, disuccinimidyl suberate cross linking
T1 construct: expressed in transfected cells; host or cells: NIH 3T3 fibroblasts, permanently transfected (p75NTR-NIH 3T3 cells)
T1 sequence (P08138 29-427): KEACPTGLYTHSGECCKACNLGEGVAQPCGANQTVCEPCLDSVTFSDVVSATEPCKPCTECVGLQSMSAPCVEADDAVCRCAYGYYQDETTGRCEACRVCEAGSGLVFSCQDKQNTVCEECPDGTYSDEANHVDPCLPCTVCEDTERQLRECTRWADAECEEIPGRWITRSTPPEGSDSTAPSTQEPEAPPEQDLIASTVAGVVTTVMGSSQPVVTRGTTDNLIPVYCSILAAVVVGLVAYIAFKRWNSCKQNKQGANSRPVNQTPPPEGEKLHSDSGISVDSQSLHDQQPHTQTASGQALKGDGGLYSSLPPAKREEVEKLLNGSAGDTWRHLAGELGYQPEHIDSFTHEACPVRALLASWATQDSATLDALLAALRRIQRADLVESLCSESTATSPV
Description: p75^NTR-NIH 3T3 cells were maintain in DMEM supplemented with 10% FBS in the presence of penicillin (45 ng/ml), streptomycin (68 ng/ml), and hygromycin B (17.5 ng/ml). At 80% confluence cells were lifted from the dish with EDTA and incubated in suspension with 5 uCi ^125I labeled β-amyloid 1-40 at 4° C. for 1 hour in DMEM. After incubation, 1 mM of disuccinimidyl suberate was added for 30 minutes. Following centrifugation cells were lysed with RIPA buffer (50 mM Tris HCl, pH 8.0, 0.15 M NaCl 0.5% sodium deoxycholate 4, 5 mM MgC2, 1% TRITON®X-100, 1 mM phenylmethylsulfonylfluoride, and 1 μg/ml aprotinin), sonicated for 1-3 seconds and immunoprecipitated with anti p75^NTR antibodies (mouse monoclonal IgGl, Cedarlane Laboratories Ltd., Ontario, Canada) or mouse IgG as control for 16 hours at 4° C. in the presence of 15 ul of protein G plus protein A agarose and 1M NaCl adjusted to pH 8.0. After several washes with 20 mM Tris HCl, pH 8.0, 1M NaCl, 5mM MgCl2, 0.2% TRITON®X-100 and 1 mM PMSF, immunoprecipitates were separated over 8% PAGE and subjected to autoradiography. A band of appropriate molecular weight was present only in lysates immunoprecipitated with anti p75^NTR antibodies and not lysates immunoprecipitated with irrelevant mouse IgG.

[3] = test system: melanocytes; test: NGF supplementation of β-amyloid-treated melanocytes; format: cell-based, human; conditions: for percent of live cells (spread): 48 hours
Description: Melanocytes were maintained as above in hormone supplemented medium lacking hydrocortisone. Cells were supplemented with 25 μM of β-amyloid 1-40 in the presence of 50 ng/ml NGS or diluent.
Photographs of representative fields were obtained and the percent of the live cells (spread) was determined 48 hours after addition of β-amyloid and NFG or β-amyloid and diluent.
At least 400 cells were counted in each condition.

[4] = test system: normal human melanocytes; test: melanocyte cell yield and morphology after β-amyloid supplementation; format: cell-based
Description: To determine the effect of β-amyloid on normal human melanocytes, cultures were supplemented with increasing concentrations (0.025-50 uM) of HPLC-purified β-amyloid fragment corresponding to amino acids 1-40. A peptide containing the first 40 amino acids synthesized in reverse order (40-1) was used as a negative control.
Melanocytes were maintained in serum free Medium 199 (Gibco BRL Gaithersburg, Md.) supplemented with epidermal growth factor (10 ng/ml) (Collaborative Research), insulin (10 μg/ml) (Sigma), triiodothyronine (10^−9 M) (Collaborative Research), transferrin (10 μg/ml) (Sigma), hydrocortisone (1.4×10^−6 M) (Calbiochem), cholera toxin (10^−9 M) (Calbiochem) and basic fibroblast growth factor (basic FGF) (10 ng/ml) (Collaborative Research). Two days after plating cells were supplemented with increasing concentrations of β-amyloid 1-40 or the control peptide 40-1 (0-50 μM) (Bachem Calif., Torrance, Calif.).

[5] = test system: p75^NTR 3T3 cells; test: cell yield of p75NTR 3T3 cells with β-amyloid and cyclic peptide; format: cell-based
Description: p75^NTR 3T3 cells were maintained in serum free medium supplemented with 200 nM β-amyloid 1-40, 200 nM cyclic peptide […], (SEQ ID NO: 4) 20 nM β-amyloid 1-40 and 200 nM cyclic peptide or diluent alone.

[6] = test system: p75^NTR; test: UV irradiated melanocytes treated with anti p75NTR antisense oligonucleotides; format: cell-based
Description: Melanocytes were UV irradiated with 25 mJ/cm^2 and then supplemented either with 10 μM anti p75^NTR anti sense phosphothioate oligonucleotides ([…] SEQ ID NO.: 5) directed against the 3′ end of the p75^NTR coding region, or the same concentration of sense oligonucleotides as a negative control.
Immunohistochemical analysis confirmed that p75^NTR was not expressed in cells treated with anti-p75^NTR anti-sense oligonucleotides, but was expressed in the sense treated cells. Within 24 hours after irradiation; the following was observed the following were observed: […]

[7] = biological target: T1, p75^NTR; test: receptor affinity for p75NTR; format: binding
[8] = biological target: T1, p75^NTR; test: competition for 125I labeled β-amyloid 1-40 binding on p75NTR-NIH 3T3 cells; conditions: NGF 100 ng/ml; 2 hours at 4° C.
Excerpt: After rinsing in PBS, cells were lysed in 1N NaOH and equal amounts of protein from cell lysates were subject to counting.
[…] (SEQ ID NO: 4). Lysates from 1.5×10^5 cells were subjected to counting.

[9] = biological target: T1, p75^NTR; conditions: lysine at position 34 replaced by alanine; vs NGF; cited from earlier work
[10] = ≧25 μM, compared to control cultures
[11] = NGF supplementation, preliminary data

In the case of “25-35: β-amyloid peptide fragment of amino acid residues 25-35 (GSNKGAIIGLM)”, the “increased Bax level as compared to the 40-1 peptide” value [1] is reported as 160% and the Bax induction [1] is reported as 3 fold.

For “β-amyloid 1-40: HPLC-purified β-amyloid fragment corresponding to amino acids 1-40”, the “binding to p75NTR (autoradiogram of immunoprecipitates)” value [2] was “protein band of 75-80 kD in size only in lysates immunoprecipitated with anti p75^NTR antibodies”, the “increased Bax level as compared to the 40-1 peptide” value [1] was 270% and the Bax induction [1] was 3 fold. The “upregulation of Bax protein expression” value [1, 10] was “approximately three fold”, the “percent of live cells (spread)” value ([3]; 25 μM β-amyloid 1-40 and diluent) was 77±8.5% and the “effect on cell yield” value ([4]; 0-50 μM, three to five days after addition) was “dose dependent decrease of cell yield”. For the same substance, the “decrease in cell yield” value ([4]; 25-30 uM, compared to cell yield before β-amyloid addition (100%)) was 59%±17%, the dendrite outgrowth ([4]; low concentrations (≦1 μM)) was “extensive outgrowth of dendrites” and the “decrease of melanocyte yield” value ([4]; within 3-5 days, total of four experiments) was > 50%. The “proportion of apoptotic cells” value [4, 10] was “significantly increases the proportion of apoptotic cells”, the “cell yield compared to all other cultures” value ([5]; 200 nM, serum free medium, up to 120 hours) was “prominent decrease of cell yield” and the “reduction of cell yields” value ([5]; β-amyloid 200 nM) was ~60%.

In the case of “CTCCCACTCGTCATTCGAC (all phosphorothioate, sugars by position and methylation of C not given here) [anti-sense oligonucleotides, anti p75NTR anti sense phosphothioate oligonucleotides directed against the 3′ end of the p75NTR coding region]”, the “p75NTR expression (immunohistochemical analysis)” value ([6]; 10 μM oligonucleotide, melanocytes UV irradiated with 25 mJ/cm^2) is reported as “not expressed”, the “appearance of cells within 24 hours after irradiation” value (“appearance of cells within 24 hours” for short) ([6]; diluent instead of NGF) is reported as “appear as healthy as cells provided NGF lacking p75^NTR” and the “appearance of cells within 24 hours” value ([6]; with 50 ng/ml NGF) is reported as “do not appear as healthy or numerous as cells expressing both receptors in the presence of NGF”.

For “NGF: Nerve growth factor, physiologic ligand for p75NTR”, the “higher receptor affinity than β-amyloid” value [7] was 2-3 fold, the “maximum inhibition of 125I labeled β-amyloid binding” value [8] was 38% and the “appearance of cells within 24 hours” value ([6]; with 50 ng/ml NGF) was “appear healthy”. For the same substance, the “percent of live cells (spread)” value ([3]; 25 μM β-amyloid 1-40 and 50 ng/ml NGF) was 96±1.4%, the “cell yields of β-amyloid-supplemented melanocytes” value ([3]; NGF added, within 3-5 days) was “enhanced cell yields” and the Bcl-2 levels [3, 11] was “increases Bcl-2 levels”. The “β-amyloid-induced Bax upregulation” value [3, 11] was “decreases the β-amyloid-induced Bax upregulation”.

For “mutant NGF: NGF in which lysine (K) at position 34 is replaced by alanine (A)”, the “lower affinity of binding to p75NTR” value [9] is listed as 50%.
